Assay results: patent US10005816B2, “Peptides and their use in food and beverage” (priority 2014, dated 2018)
Where no end group is shown, it is not given here.

Assay: Sensory evaluation of peptide additive in coffee brew by five expert panelists (Example 4)
Details: 40 ppm additive in coffee brew; FOLGERS Classic Decaf roast and ground coffee; versus control brew without additive
Experimental: Coffee brews were prepared using a commercially available roast and ground coffee product (FOLGERS® brand Classic Decaf coffee) using a standard automatic drip coffee brewer (i.e., MR. COFFEE®). The brewing process was carried out as instructed on the coffee package. Each single peptide in Example 1 and peptide compositions in Examples 2 and 3 were mixed into to the coffee brew. Five expert panelists evaluated the effect of peptide additive on coffee flavor profile.

Substance | Sensory Evaluation
Pro-Thr-Pro-Leu-Leu (PTPLL) [Peptide (Ia)] | Stronger than control, very bitter
EELLPE [Peptide (Ie)] | Stronger than control, fuller
LACHLL [Peptide (Id)] | Strange non-coffee taste charcoal,
Pro-Pro-Thr-Leu-Leu (PPTLL) [Peptide (Ic)] | Stronger than control, bitter
